# Source: patent US20140228311A1, “CRYSTALLIZATION OF IDARUBICIN HYDROCHLORIDE” (HERAEUS PRECIOUS METALS GMBH & CO. KG, priority 2011, published 2014)
# Structures can show the parent of a compound that is named as a salt.
# Key:
# Type in all cases: physicochemical
# [1] = Storage stability of crystalline idarubicin hydrochloride in drying chamber, content analysed by HPLC; conditions: for Purity of idarubicin hydrochloride: HPLC
# Description: The crystalline idarubicin hydrochloride obtained in Example 1 was studied for its stability relative to storage at temperatures of 25° C. and 40° C. for various time periods. For this purpose, aliquots of the obtained crystalline idarubicin hydrochlorides were encapsulated individually. One half of the aliquots were stored in a drying chamber at 25° C., the other half were stored in a different drying chamber at 40° C. After the times specified below, individual samples were taken from the drying chambers and the content of idarubicin hydrochloride was analyzed by high performance liquid chromatography (HPLC).
# [2] = Thermodynamic stability of the crystalline form versus amorphous form; conditions: compared with amorphous idarubicin hydrochloride
# [3] = Storage of currently available idarubicin hydrochloride under typical storage conditions; conditions: hydrolysis of the sugar group, increase in 4-demethoxydaunomycinone
Stability for long storage ([1]; long storage under elevated temperatures),"Purity of idarubicin hydrochloride ([1]; storage at 25° C., 0 weeks)","Purity of idarubicin hydrochloride ([1]; storage at 25° C., 1 week)","Purity of idarubicin hydrochloride ([1]; storage at 25° C., 2 weeks)","Purity of idarubicin hydrochloride ([1]; storage at 25° C., 4 weeks)","Purity of idarubicin hydrochloride ([1]; storage at 25° C., 8 weeks)","Purity of idarubicin hydrochloride ([1]; storage at 25° C., 24 weeks)","Purity of idarubicin hydrochloride ([1]; storage at 40° C., 0 weeks)","Purity of idarubicin hydrochloride ([1]; storage at 40° C., 1 week)","Purity of idarubicin hydrochloride ([1]; storage at 40° C., 2 weeks)","Purity of idarubicin hydrochloride ([1]; storage at 40° C., 4 weeks)","Purity of idarubicin hydrochloride ([1]; storage at 40° C., 8 weeks)","Purity of idarubicin hydrochloride ([1]; storage at 40° C., 24 weeks)",Decomposition during storage [3],SMILES,Thermodynamic stability [2]
extraordinarily high stability,99.95,99.90,99.87,99.93,99.84,99.91,99.95,99.87,99.87,99.92,99.83,99.91,,"CC(=O)[C@]1(O)Cc2c(O)c3c(c(O)c2[C@@H](O[C@H]2C[C@H](N)[C@H](O)[C@H](C)O2)C1)C(=O)c1ccccc1C3=O [crystalline idarubicin hydrochloride, idarubicin hydrochloride]",thermodynamically more stable than amorphous idarubicin hydrochloride
,,,,,,,,,,,,,steady decomposition,CC(=O)[C@]1(O)Cc2c(O)c3c(c(O)c2[C@@H](O[C@H]2C[C@H](N)[C@H](O)[C@H](C)O2)C1)C(=O)c1ccccc1C3=O [idarubicin hydrochloride],
